Source: ChEMBL document CHEMBL1146307, “Exploring the active site of phenylethanolamine N-methyltransferase with 1,2,3,4-tetrahydrobenz[h]isoquinoline inhibitors” (Bioorg Med Chem, 2007)

Target: T1, Adrenergic receptor alpha-2 (Rattus norvegicus, UniProt P22086+P19328+P22909)
T1 sequence (P22086 whole entry): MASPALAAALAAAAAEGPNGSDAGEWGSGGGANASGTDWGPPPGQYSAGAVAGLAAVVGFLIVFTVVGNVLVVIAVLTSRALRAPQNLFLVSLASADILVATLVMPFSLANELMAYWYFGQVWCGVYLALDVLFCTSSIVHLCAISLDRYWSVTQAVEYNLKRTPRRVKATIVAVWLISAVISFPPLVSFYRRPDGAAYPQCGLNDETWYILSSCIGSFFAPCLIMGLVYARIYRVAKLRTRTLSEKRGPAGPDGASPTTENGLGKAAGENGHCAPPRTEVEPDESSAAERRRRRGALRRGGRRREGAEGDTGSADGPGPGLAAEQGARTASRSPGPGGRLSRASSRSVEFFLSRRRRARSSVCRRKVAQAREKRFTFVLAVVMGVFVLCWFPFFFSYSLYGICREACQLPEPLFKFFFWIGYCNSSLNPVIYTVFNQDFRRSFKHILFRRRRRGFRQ
T1 sequence (P19328 whole entry): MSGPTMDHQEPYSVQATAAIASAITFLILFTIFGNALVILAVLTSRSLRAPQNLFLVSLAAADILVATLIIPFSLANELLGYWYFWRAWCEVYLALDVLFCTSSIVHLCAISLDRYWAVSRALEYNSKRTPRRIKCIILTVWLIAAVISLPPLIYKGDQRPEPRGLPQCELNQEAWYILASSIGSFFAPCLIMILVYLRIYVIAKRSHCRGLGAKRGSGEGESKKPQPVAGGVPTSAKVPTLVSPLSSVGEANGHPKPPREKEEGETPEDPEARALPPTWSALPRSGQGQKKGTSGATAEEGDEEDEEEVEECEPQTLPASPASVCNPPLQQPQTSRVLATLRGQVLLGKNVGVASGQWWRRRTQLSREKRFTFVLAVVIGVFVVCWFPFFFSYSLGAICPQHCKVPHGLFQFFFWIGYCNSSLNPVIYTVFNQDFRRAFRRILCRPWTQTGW
T1 sequence (P22909 whole entry): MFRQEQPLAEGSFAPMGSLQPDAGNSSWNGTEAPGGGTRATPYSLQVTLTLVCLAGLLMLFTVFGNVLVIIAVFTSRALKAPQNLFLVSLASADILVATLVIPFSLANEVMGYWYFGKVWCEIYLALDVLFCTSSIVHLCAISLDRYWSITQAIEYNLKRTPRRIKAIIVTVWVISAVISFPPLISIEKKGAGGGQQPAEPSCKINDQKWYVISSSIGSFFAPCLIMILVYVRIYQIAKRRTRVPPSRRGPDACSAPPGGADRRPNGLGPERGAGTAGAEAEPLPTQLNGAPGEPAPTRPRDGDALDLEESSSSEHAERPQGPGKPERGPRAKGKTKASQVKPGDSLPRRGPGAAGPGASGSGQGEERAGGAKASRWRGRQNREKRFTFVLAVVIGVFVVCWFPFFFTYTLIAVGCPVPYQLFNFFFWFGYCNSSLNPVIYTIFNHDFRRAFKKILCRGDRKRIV
Test: Displacement of [3H]clonidine from adrenergic alpha2 receptor in Sprague-Dawley rat cortex membrane
Type: cell membranes

Compound | Ki [µM]
O=[N+]([O-])c1cccc2c3c(ccc12)CCNC3 | 0.41
c1ccc2c3c(ccc2c1)CCNC3 | 0.016
NS(=O)(=O)c1cccc2c3c(ccc12)CCNC3 | 2.9

Next, values leading:

Ki [µM] | Compound
0.16 | COc1cccc2c3c(ccc12)CCNC3
0.011 | Oc1cccc2c3c(ccc12)CCNC3
0.59 | N#Cc1cccc2c3c(ccc12)CCNC3
0.1 | Brc1cccc2c3c(ccc12)CCNC3

System: not listed separately
Test: Selectivity for human PNMT over Sprague-Dawley rat adrenergic alpha-2 receptor

Compound | Ratio Ki
c1ccc2c(c1)CCNC2 | 0.06
